From patent US6596771B2, “Drugs for treating viral infections” (priority 2001, dated 2003)
In brackets after ≈: the same amount, converted by molar mass. Like-named read-outs stand apart in the source and are kept apart here.

Assays:
[1] = test system: cowpox virus; assay type: cell-based
[2] = test system: Vaccinia Virus; assay type: cell-based
[3] = test system: cowpox virus; assay type: cell-based; remark: listed apart in the source
[4] = test system: Vaccinia Virus; assay type: cell-based; remark: listed apart in the source
[5] = test system: HFF cells
[6] = test system: stationary HFF cells; assay: Neutral Red Uptake Assay (toxicity); assay type: cell-based, human
[7] = test system: cowpox; set-up: species or system female BALB/c mice; conditions: mouse, in vivo

Compound | concentration at which active in these cells [1] | EC50 [2] | EC50 [3] | EC90 [2] | EC90 [4] | CC50 [5] | EC90 [3] | CC50 [6] | Lung titer on Day 3 [7]
Nc1ccn(C[C@@H](CO)OCP(=O)(O)O)c(=O)n1 [CDV, reference compound] | about 12.0 microgram microgram/mL | 1.80 microgram/mL | 2.30 microgram/mL |  |  |  |  |  | 
O=S(=O)(NC12CC3CC(CC(C3)C1)C2)NS(=O)(=O)NC12CC3CC(CC(C3)C1)C2 [Example 1, N,N^1-Bis(tricyclo[3.3.1.1^3,7]dec-1-yl)imidodisulfamide] |  |  |  | 1.40 microgram/mL | 0.15 µg/mL (≈ 0.338 µM) | 77.80 microgram/mL |  |  | 
O=S(=O)([N-]S(=O)(=O)NC12CC3CC(CC(C3)C1)C2)NC12CC3CC(CC(C3)C1)C2.[Na+] [Example 11] |  | 0.04 microgram/mL | 0.50 microgram/mL | 0.11 microgram/mL |  |  | 2.10 microgram/mL | 87.6 microgram/mL | 6.6±1.3
